Measured values taken from the supplement of paper PMC11061612.

Key:
Assay in all cases: Bliss excess, mean over the matrix (fraction); higher = more synergy
[1] = tested on: ATN-1 (T-Lymphoblastic Leukemia)
Method in brief: (§1)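 After 24 hours at 37°C and 5% CO2 in 1536-well plates, cells in DMEM/F12 or RPMI plus 10% FBS received two-drug dose matrices for 72 hours. Viability came from CellTiter-Glo 2.0 luminescence and was scaled as inhibition, anchored at 0 by vehicle wells and at 1 by blank wells. Combination Emax is taken as the second-highest inhibition in the matrix, and Bliss excess as the observed combination effect less EA + EB − EA·EB, with EA and EB the single-agent effects.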

[2] = tested on: BT-474 (Breast Carcinoma)
Method in brief: as §1

[3] = tested on: C2BBe1 (Colorectal Carcinoma)
Method in brief: as §1

C32 (Melanoma) = tested on: C32 (Melanoma)
Method in brief: as §1

[4] = tested on: CAL-85-1 (Breast Carcinoma)
Method in brief: as §1

[5] = tested on: COR-L105 (Lung Adenocarcinoma)
Method in brief: as §1

[6] = tested on: IGROV-1 (Ovarian Carcinoma)
Method in brief: as §1

[7] = tested on: JURL-MK1 (Chronic Myelogenous Leukemia)
Method in brief: as §1

[8] = tested on: L-363 (Plasma Cell Myeloma)
Method in brief: as §1

MG-63 (Osteosarcoma) = tested on: MG-63 (Osteosarcoma)
Method in brief: as §1

[9] = tested on: NCI-H1435 (Non-Small Cell Lung Carcinoma)
Method in brief: as §1

[10] = tested on: NCI-H1944 (Lung Adenocarcinoma)
Method in brief: as §1

[11] = tested on: NCI-H2009 (Lung Adenocarcinoma)
Method in brief: as §1

NCI-H2452 (Mesothelioma) = tested on: NCI-H2452 (Mesothelioma)
Method in brief: as §1

[12] = tested on: NCI-H835 (Other Solid Carcinomas)
Method in brief: as §1

[13] = tested on: NTERA-2-cl-D1 (Other Solid Carcinomas)
Method in brief: as §1

[14] = tested on: OCI-M1 (Acute Myeloid Leukemia)
Method in brief: as §1

[15] = tested on: SBC-3 (Small Cell Lung Carcinoma)
Method in brief: as §1

[16] = tested on: SW1463 (Colorectal Carcinoma)
Method in brief: as §1

[17] = tested on: TK (B-Cell Non-Hodgkin's Lymphoma)
Method in brief: as §1

Row | SMILES | Bliss excess [1] | Bliss excess [2] | Bliss excess [3] | Bliss excess (C32 (Melanoma)) | Bliss excess [4] | Bliss excess [5] | Bliss excess [6] | Bliss excess [7] | Bliss excess [8] | Bliss excess (MG-63 (Osteosarcoma)) | Bliss excess [9] | Bliss excess [10] | Bliss excess [11] | Bliss excess (NCI-H2452 (Mesothelioma)) | Bliss excess [12] | Bliss excess [13] | Bliss excess [14] | Bliss excess [15] | Bliss excess [16] | Bliss excess [17]
1 | COc1cccc(OCCCN)c1-c1cc(Nc2cnc(C#N)cn2)n[nH]1 [Prexasertib] + CN(C)CCCOc1ccc(-c2ccc3ncc4c(c3c2)n(C2CCOCC2)c(=O)n4C)cn1 [AZD0156] (first compound max 1 µM, 7x7, partner max 1 µM) | 0.0102 | 0.0023 | 0.0131 | 0.009 | -0.0157 | -0.0428 | -0.0283 | 0.0231 | -0.039 | 0.0072 | 0.0385 | 0.0331 | 0.019 | -0.0554 | 0.0571 | 0.0083 | -0.0504 | -0.0046 | -0.0265 | -0.0412
2 | CCc1c2c(nc3ccc(O)cc13)-c1cc3c(c(=O)n1C2)COC(=O)[C@]3(O)CC [SN-38] + CN(C)CCCOc1ccc(-c2ccc3ncc4c(c3c2)n(C2CCOCC2)c(=O)n4C)cn1 [AZD0156] (first compound max 0.3 µM, 7x7, partner max 1 µM) | 0.0407 | -0.047 | -0.0179 | 0.0537 | -0.0349 | -0.0799 | -0.0101 | 0.0551 | 0.0206 | -0.0166 | -0.026 | -0.0343 | 0.126 | -0.0197 | -0.0382 | -0.0591 | 0.0128 | -0.0894 | 0.0296 | 0.0322
3 | NC1(C(=O)N[C@@H](CCO)c2ccc(Cl)cc2)CCN(c2ncnc3[nH]ccc23)CC1 [Capivasertib] + CC(=O)c1c(C)c2cnc(Nc3ccc(N4CCNCC4)cn3)nc2n(C2CCCC2)c1=O [Palbociclib] (first compound max 10 µM, 7x7, partner max 10 µM) | -0.0217 | -0.0261 | -0.0094 | 0.0018 | -0.0019 | 0.0532 | -0.048 | -0.0233 | -0.0413 | 0.0404 | -0.0245 | 0.02 | -0.0054 | -0.02 | -0.0562 | 0.0373 | -0.0056 | 0.0265 | -0.0837 | -0.0218
4 | CC1(C)CCC(CN2CCN(c3ccc(C(=O)NS(=O)(=O)c4ccc(NCC5CCOCC5)c([N+](=O)[O-])c4)c(Oc4cnc5[nH]ccc5c4)c3)CC2)=C(c2ccc(Cl)cc2)C1 [Venetoclax] + CS(=O)(=O)CCNCc1ccc(-c2ccc3ncnc(Nc4ccc(OCc5cccc(F)c5)c(Cl)c4)c3c2)o1 [Lapatinib] (first compound max 1 µM, 7x7, partner max 10 µM) |  |  |  | -0.0443 | -0.044 | -0.0535 |  |  | -0.0033 | 0.0029 | 0.0073 |  | -0.0358 | -0.0546 | -0.0206 | -0.0618 |  | -0.0339 | 0.0659 | 
5 | C[C@@H]1COCCN1c1cc(C2([S@](C)(=N)=O)CC2)nc(-c2ccnc3[nH]ccc23)n1 [AZD6738] + Nc1ccn([C@@H]2O[C@H](CO)[C@@H](O)C2(F)F)c(=O)n1 [Gemcitabine] (first compound max 10 µM, 7x7, partner max 0.3 µM) |  |  |  | -0.0247 | 0.0227 | 0.003 |  |  | 0.0716 | 0.17 | 0.0799 |  | 0.0954 | 0.0333 | 0.0442 | -0.0019 |  | 0.0306 | -0.0128 | 
6 | C=CCn1c(=O)c2cnc(Nc3ccc(N4CCN(C)CC4)cc3)nc2n1-c1cccc(C(C)(C)O)n1 [AZD1775] + Nc1ccn([C@@H]2O[C@H](CO)[C@@H](O)C2(F)F)c(=O)n1 [Gemcitabine] (first compound max 1 µM, partner max 0.3 µM) |  |  |  | -0.0569 | 0.0733 | -0.0263 |  |  | 0.125 | 0.0581 | -0.0012 |  | 0.0606 | -0.0727 | -0.0789 | -0.062 |  | -0.0105 | -0.0109 | 
7 | CC(=O)c1c(C)c2cnc(Nc3ccc(N4CCNCC4)cn3)nc2n(C2CCCC2)c1=O [Palbociclib] + Cn1cnc2c(F)c(Nc3ccc(Br)cc3Cl)c(C(=O)NOCCO)cc21 [Selumetinib] (first compound max 10 µM, 7x7, partner max 10 µM) | 0.0209 | -0.0418 | -0.0273 | -0.0086 | -0.0218 | -0.0355 | 0.0255 | 0.0361 | 0.0127 | 0.0263 | -0.0105 | -0.0022 | -0.0264 | -0.0682 | -0.0551 | -0.007 | 0.0125 | -0.0396 | 0.0128 | -0.0196
8 | Cc1nc(-c2cn3c(n2)-c2ccc(-c4cnn(C(C)(C)C(N)=O)c4)cc2OCC3)n(C(C)C)n1 [Taselisib] + O=C(Nc1ccc2[nH]nc(-c3ccncc3)c2c1)[C@@H]1CCN(CC(=O)N2CCN(c3ccc(-c4ncccn4)cc3)CC2)C1 [SCH772984] (first compound max 10 µM, 7x7, partner max 5 µM) |  |  |  | 0.0706 | 0.0682 | 0.052 |  |  | 0.176 | -0.0764 | 0.0352 |  | 0.0964 | -0.0276 | 0.0323 | -0.0322 |  | 0.11 | 0.0102 | 
9 | Cc1c2c(nn1C)CSCc1cc(n(C)n1)CSc1cc(c3ccccc3c1)OCCCc1c(C(=O)O)n(C)c3c-2c(Cl)ccc13 [AZD5991] + Nc1ccn([C@@H]2O[C@H](CO)[C@@H](O)C2(F)F)c(=O)n1 [Gemcitabine] (first compound max 1 µM, 7x7, partner max 0.3 µM) |  |  |  | -0.0117 | -0.027 | 0.0042 |  |  | 0.0938 | -0.071 | -0.0706 |  | -0.0361 | -0.0642 | 0.0842 | -0.0695 |  | 0.0059 | -0.0715 | 
10 | O=C(c1cc(Cc2n[nH]c(=O)c3ccccc23)ccc1F)N1CCN(C(=O)C2CC2)CC1 [Olaparib] + Cc1c2c(nn1C)CSCc1cc(n(C)n1)CSc1cc(c3ccccc3c1)OCCCc1c(C(=O)O)n(C)c3c-2c(Cl)ccc13 [AZD5991] (first compound max 10 µM, 7x7, partner max 1 µM) |  |  |  | -0.0585 | -0.0484 | -0.0494 |  |  | 0.0277 | -0.0465 | -0.0055 |  | -0.0445 | -0.0199 | -0.0467 | 0.0289 |  | -0.0134 | -0.0325 | 
11 | C[C@@H](Nc1cc(F)cc(F)c1)c1cc(C(=O)N(C)C)cc2c(=O)cc(N3CCOCC3)oc12 [AZD8186] + C1CN(CCC1(C(=O)N[C@@H](CCO)C2=CC=C(C=C2)Cl)N)C3=NC=NC4=C3C=CN4 [AZD5363] (first compound max 10 µM, 7x7, partner max 10 µM) |  |  |  | -0.0235 | -0.0285 | 0.0189 |  |  | -0.0138 | -0.0376 | 0.0283 |  | -0.034 | -0.0466 | -0.0164 | -0.0573 |  | 0.0272 | -0.016 | 
12 | O=C(c1cc(Cc2n[nH]c(=O)c3ccccc23)ccc1F)N1CCN(C(=O)C2CC2)CC1 [Olaparib] + COc1nnc2ccc(N3CCC(c4ccc(OCCN5CCN(C)C(=O)[C@H]5C)cc4)CC3)nn12 [AZD5153] (first compound max 10 µM, 7x7, partner max 1 µM) |  |  |  | -0.0595 | -0.026 | -0.0689 |  |  | 0.0357 | -0.0749 | -0.022 |  | -0.044 | -0.0361 | -0.0422 | -0.127 |  | -0.0786 | -0.0601 | 
13 | CS(=O)(=O)CCNCc1ccc(-c2ccc3ncnc(Nc4ccc(OCc5cccc(F)c5)c(Cl)c4)c3c2)o1 [Lapatinib] + NC1(c2ccc(-c3nc4ccn5c(=O)[nH]nc5c4cc3-c3ccccc3)cc2)CCC1 [MK-2206] (first compound max 10 µM, 7x7, partner max 10 µM) |  |  |  | 0.0188 | -0.0016 | 0.014 |  |  | 0.026 | 0.0157 | 0.0601 | 0.0376 | -0.0246 | -0.0302 | 0.0357 | 0.0305 | 0.0217 | 0.0258 | 0.0833 | 
14 | CCc1c2c(nc3ccc(O)cc13)-c1cc3c(c(=O)n1C2)COC(=O)[C@]3(O)CC [SN-38] + O=C(c1cc(Cc2n[nH]c(=O)c3ccccc23)ccc1F)N1CCN(C(=O)C2CC2)CC1 [Olaparib] (first compound max 0.3 µM, 7x7, partner max 10 µM) | 0.0907 |  |  | 0.117 | 0.059 | -0.022 |  | 0.0401 | 0.0309 | 0.0681 | 0.0243 | 0.025 | 0.14 | 0.0422 | 0.017 | 0.0387 |  | 0.0513 | 0.0557 | 
15 | C[C@@H](Nc1cc(F)cc(F)c1)c1cc(C(=O)N(C)C)cc2c(=O)cc(N3CCOCC3)oc12 [AZD8186] + CC(=O)c1c(C)c2cnc(Nc3ccc(N4CCNCC4)cn3)nc2n(C2CCCC2)c1=O [Palbociclib] (first compound max 10 µM, 7x7, partner max 10 µM) |  |  |  | 0.04 | -0.0529 | 0.0059 |  |  | 0.0624 | 0.0535 | 0.0802 |  | -0.0184 | -0.0353 | 0.0763 | 0.0104 |  | 0.0742 | 0.101 | 
16 | C[C@@H](Oc1cc(-c2cnn(C3CCNCC3)c2)cnc1N)c1c(Cl)ccc(F)c1Cl [Crizotinib] + Cn1cnc2c(F)c(Nc3ccc(Br)cc3Cl)c(C(=O)NOCCO)cc21 [Selumetinib] (first compound max 10 µM, 7x7, partner max 10 µM) |  |  |  | 0.0411 | -0.055 | -0.0146 |  |  | 0.0316 | -0.0017 | -0.0088 |  | 0.0062 | -0.0494 | -0.0653 | -0.027 |  | -0.0502 | -0.0443 | 
17 | CS(=O)(=O)CCNCc1ccc(-c2ccc3ncnc(Nc4ccc(OCc5cccc(F)c5)c(Cl)c4)c3c2)o1 [Lapatinib] + Cn1cnc2c(F)c(Nc3ccc(Br)cc3Cl)c(C(=O)NOCCO)cc21 [Selumetinib] (first compound max 10 µM, 7x7, partner max 10 µM) |  |  |  | -0.0418 | 0.0396 | 0.0224 |  |  | -0.0027 | -0.0863 | 0.0172 |  | -0.0531 | -0.0363 | -0.0013 | -0.0125 |  | -0.0109 | 0.0681 | 
